This note sets out measurements from patent US20040228820A1, “Compositions comprising an amidine and an alkane polyol” (The Procter & Gamble Company, priority 2003, published 2004).

A short description of this data set: Stabilisation of amidines in aqueous solution by alkane polyols.
Source text: The compositions of the present invention also comprise an alkane polyol having an N-octanol/water partition coefficient (ClogP) of from +0.2 to +1.55. […] The ClogP values of these materials indicate their hydrophilic/lipophilic balance. Alkane polyols having a ClogP value of between +0.2 and +1.55 are slightly lipophilic, enabling them to interact with the amidines. However, the alkane polyols herein maintain a high enough solubility in water due to the presence of the hydroxy moieties to allow them to maintain the amidine in solution.
`CCCC(O)CO` (centres unmarked) [1,2 Pentanediol]: the “Stabilises Amidines?” value is listed as “No”.
For the compound `CCCCCC(O)CO` (centres unmarked) [1,2-heptanediol], the “Stabilises Amidines?” value is reported as “Yes”.
Under `CCCCC(O)CO` (centres unmarked) [1,2-hexanediol] stands “Yes”; under `CCCCCCC(O)CO` (centres unmarked) [1,2-octanediol], “Yes”; under `OCCCCCCCO` [1,7-heptanediol], “Yes”.
Under `OCCCCCCCCCO` [1,9-nonanediol] stands “Yes”; under `OCCCCCCCCCCO` [1,10-decanediol], “No”; under `CC(O)CCC(C)O` (centres unmarked) [2,5-hexanediol], “No”.
